# Patent US10258556B2, “Anti-aging peptide, its composition and method of using the same” (priority 2017, dated 2019)
# Residues, ends and D or L forms follow the SMILES beside them.
# Tested on: CCD-966SK fibroblast cells
# Test: MTT assay (cell viability)
# Assay type: cell-based, human
# Conditions: peptide at different concentrations, 24, 48 and 72 hours, FIG. 3
# Description: CCD-966SK was skin fibroblast cells isolated from human breast and was purchased from BCRC (Bioresource Collection and Research Center, Hsinchu, Taiwan). It was cultured in Dulbecco's Modified Eagle Medium (DMEM) containing 10% (v/v) FBS and penicillin/streptomycin (100 IU/[…]) in 5% CO2 at 37° C.
# The cells (3×10^3) in 100 μl complete DMEM were seeded in 96-well plates with or without MUC20 peptide NO.10. Ten microliters of 5 mg/ml 3-(4,5-dimethyl-2-thiazolyl)-2,5-diphenyl-2H-tetrazolium bromide solution (MTT; Sigma) was added to each well and incubated at 37° C. for 3 hours. After that, 100 μl 10% SDS in 0.01N HCl was added to dissolve the MTT formazan crystals. The resultant optical density was measured by spectrophotometry at dual wavelengths, 550 and 630 nm.
# The cell viability of the CCD-966SK fibroblast cells was analyzed by MTT assays. The results were obtained from three independent experiments. The results of the cells treated with the peptide of SEQ ID NO: 1 for 24 hours (upper panel), 48 hours (middle panel), and 72 hours (lower panel) were shown in FIG. 3.
smiles,measurement,value
"C[C@H](NC(=O)[C@H](CCC(=O)O)NC(=O)[C@@H](NC(=O)[C@H](CO)NC(=O)[C@H](CC(=O)O)NC(=O)[C@@H]1CCCN1)[C@@H](C)O)C(=O)N[C@@H](CCCCN)C(=O)O [peptide of SEQ ID NO: 1, ProAspSerThrGluAlaLys] (H-PDSTEAK-OH)",viability of the CCD-966SK fibroblast cells,did not significantly affect viability
